Results from ChEMBL document CHEMBL1127373 (J Med Chem, 1994).

Target: Neuronal acetylcholine receptor
Assay: Tested for the binding affinity against neuronal nicotinic acetylcholine receptors from whole rat brain

## CN1C[C@@H](CF)C[C@H]1c1cccnc1
  Ki: 0.0111 µM

## CC(=O)O[C@H]1C[C@@H](c2cccnc2)N(C)C1
  Ki: 0.103 µM

## CN1[C@@H](c2ccccc2)CC[C@H]1c1cccnc1
  Ki: 1.24 µM

## CN1C[C@H](CO)C[C@H]1c1cccnc1
  Ki: 0.294 µM

## COC[C@H]1C[C@@H](c2cccnc2)N(C)C1
  Ki: 0.51 µM

## CC1CN(C)[C@H](c2cccnc2)C1C (some centres not stated)
  Ki: 0.0964 µM

## CSC[C@H]1C[C@@H](c2cccnc2)N(C)C1
  Ki: 0.493 µM

## CN1C[C@H](C#N)C[C@H]1c1cccnc1
  Ki: 0.082 µM

## CN1C[C@@H](O)C[C@H]1c1cccnc1
  Ki: 0.0276 µM

## CN1C[C@@H](CC#N)C[C@H]1c1cccnc1
  Ki: 0.052 µM

## CN1C[C@@H](OS(C)(=O)=O)C[C@H]1c1cccnc1
  Ki: 0.364 µM

## CCCC[C@@H]1CC[C@@H](c2cccnc2)N1C
  Ki: 1.38 µM

## CN1C[C@@H](CO)C[C@H]1c1cccnc1
  Ki: 0.158 µM

## C[C@H]1CC[C@@H](c2cccnc2)N1C
  Ki: 0.0349 µM

## CN1CCC(CO)[C@H]1c1cccnc1 (some centres not stated)
  Ki: 0.619 µM

## CN1[C@H](c2ccccc2)CC[C@H]1c1cccnc1
  Ki: 3.35 µM

## COCC1CCN(C)[C@@H]1c1cccnc1 (some centres not stated)
  Ki: 2.03 µM

## C[C@@H]1CC[C@@H](c2cccnc2)N1C
  Ki: 1.21 µM

## CN1CCC(CF)[C@H]1c1cccnc1 (some centres not stated)
  Ki: 0.0985 µM

## CO[C@H]1C[C@@H](c2cccnc2)N(C)C1
  Ki: 0.0366 µM

## CN1C[C@@H](Cc2ccccc2)C[C@H]1c1cccnc1
  Ki: 0.119 µM

## CC[C@H]1C[C@@H](c2cccnc2)N(C)C1
  Ki: 0.0502 µM
